Assay results from patent US20050037478A1, “Crystal structure of glutamate racemase (MurI)” (priority 2002, published 2005).
Positions count from the first letter of the chain named.

How the values were obtained:
[1] = molecular target: recombinant H. pylori MurI (Helicobacter pylori, UniProt Q9ZLT0)
Source text: Kinetic constant for recombinant MurI were estimated by assaying its activity at various concentrations of protein and D-glutamic acid as described above.

[2] = molecular target: T1, H. pylori MurI A75T mutant (Helicobacter pylori, UniProt Q9ZLT0, A75T); settings: reverse direction
T1 sequence (Q9ZLT0 1-255 A75T): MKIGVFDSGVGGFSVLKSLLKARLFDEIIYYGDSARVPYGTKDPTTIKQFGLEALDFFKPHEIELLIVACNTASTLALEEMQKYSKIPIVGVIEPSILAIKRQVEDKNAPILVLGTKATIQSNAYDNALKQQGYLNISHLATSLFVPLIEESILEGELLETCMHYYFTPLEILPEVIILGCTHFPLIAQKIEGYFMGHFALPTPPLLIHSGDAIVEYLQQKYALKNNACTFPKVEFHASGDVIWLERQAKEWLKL

[3] = tested on: MurI resistance mutant proteins (A75T or E151K); assay: Kinetic analysis of MurI resistance mutant proteins, forward direction (L-Glu→D-Glu); assay type: biochemical, H. pylori
Procedure: In this assay, the conversion of L-Glutamate to D-Glutamate was monitored spectrophotometrically through a two enzyme coupling system wherein, the production of D-glutamate is coupled to the incorporation of D-Glutamate into UDP-MurNAc-Ala-D-Glu by recombinant E. faecalis MurD, with concomitant hydrolysis of ATP to ADP and inorganic phosphate. […] Initial rates of reaction were determined by following the increase of absorbance at 360 nm in a 100 μL reaction volume containing 85 μL of reaction buffer (58 mM Tris, pH=8.0, 23.5 mM ammonium acetate, 23.5 mM magnesium acetate, 2.94 mM dithiothreitol, 2.94 mM adenosine triphosphate, 0.47 mM UDP-MurNAc-Ala, 0.47 mM MESG, 1.17 units./mL PNP, 16 μg/mL E. faecalis MurD, and 30 nM MurI) and 15 μL of L-Glutamate stock (0.05-10 mM). The increase in optical density at 360 nm was measured continuously in at 96 well microtitre plate in a Microplate Spectrophotometer System (Molecular Devices, SpectraMAX 250).

[4] = molecular target: the molecule itself; assay: X-ray crystallography, homodimer
[5] = molecular target: the molecule itself; assay: X-ray crystallography (molecular replacement), homodimer

Sequence of recombinant H. pylori MurI (Q9ZLT0 whole entry): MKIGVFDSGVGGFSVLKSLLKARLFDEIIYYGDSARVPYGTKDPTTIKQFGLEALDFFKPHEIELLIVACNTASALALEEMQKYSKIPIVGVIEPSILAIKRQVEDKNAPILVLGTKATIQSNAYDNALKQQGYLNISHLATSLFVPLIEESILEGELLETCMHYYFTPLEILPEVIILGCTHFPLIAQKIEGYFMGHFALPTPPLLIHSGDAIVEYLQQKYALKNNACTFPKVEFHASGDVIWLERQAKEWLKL

N[C@H](CCC(=O)O)C(=O)O [D-glutamate]
substrate inhibition [1]: Severe substrate inhibition
Km ([1]; read-out: Km for D-glutamate): 100 µM
shift of inhibition constant relative to the wild-type enzyme ([2]; mutant enzyme vs wild-type): > 120 fold
substrate inhibition by D-glutamate ([2]; mutant enzyme): exhibits substrate inhibition

N[C@@H](CCC(=O)O)C(=O)O [L-Glu, L-glutamate]
elevation of KM for L-Glu relative to the native enzyme [3]: 10 fold
substrate inhibition by L-Glu [3]: no substrate inhibition

B1: Enterococcus faecalis glutamate racemase (MurI), monomer chain of the homodimer (enzyme)
chain: MSNQEAIGLIDSGVGGLTVLKEALKQLPNERLIYLGDTARCPYGPRPAEQVVQFTWEMADFLLKKRIKMLVIACNTATAVALEEIKAALPIPVVGVILPGARAAVKVTKNNKIGVIGTLGTIKSASYEIAIKSKAPAIEVTSLACPKFVPIVESNQYRSSVAKKIVAETLQALQLKGLDTLILGCTHYPLLRPVIQNVMGSHVTLIDSGAETVGEVSMLLDYFDIAHTPEAPTQPHEFYTTGSAKMFEEIASSWLGIENLKAQQIHLGGNEND
notes: also called E. faecalis MurI; E. faecalis glutamate racemase
binding result [4]: binds

B2: Helicobacter pylori glutamate racemase (MurI), monomer chain of the homodimer (enzyme)
chain: T1 sequence (Q9ZLT0 1-255 A75T) with T75A
notes: also called H. pylori MurI; H. pylori glutamate racemase
binding result [4]: binds

B3: Enterococcus faecium glutamate racemase (MurI), monomer chain of the homodimer (enzyme)
chain: MIRLTDNRPIGFIDSGVGGLTVVKEALKQLPNENILFVGDTARCPYGPRPAEQVIQYTWEMTDYLVEQGIKMLVIACNTATAVALEEIKAALSIPVIGVILPGTRAAVKKTQNKQVGIIGTIGTVKSQAYEKALKEKVPELTVTSLACPKFVSVVESNEYHSSVAKKIVAETLAPLTTKKIDTLILGCTHYPLLRPIIQNVMGENVQLIDSGAETVGEVSMLLDYFNLSNSPQNGRTLCQFYTTGSAKLFEEIAEDWLGIGHLNVEHIELGGK
notes: also called E. faecium MurI; EF2
binding result [5]: binds
